# Laboratory results from PubChem BioAssay AID2060905 (Molecular Pharmacology Branch, DTP, NCI, 2025).
# System: 282377-053-R-J1-PDC complex spheroid viability
# Assay: Anticancer human tumor 282377-053-R-J1-PDC patient-derived colon adenocarcinoma cell line growth inhibition [RAS]
# Settings: for IC50: curve of first compound; for viability, T/C: stronger effect = lower value
# Summary of the method: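 Agents were tested in combination matrices in half-log decrements from a top concentration at or near clinical Cmax (10 microM if undetermined). Targets were multi-cell spheroids of tumour lines plus HUVEC and MSC stromal cells.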
# [1] = second compound 0.0316 µM, first compound 0.00316 µM
# [2] = second compound 0.0316 µM, first compound 0.01 µM
# [3] = second compound 0.0316 µM, first compound 0.0316 µM
# [4] = second compound 0.0316 µM, first compound 0.1 µM
# [5] = second compound 0.0316 µM, first compound 0.316 µM
# [6] = second compound 0.0316 µM, first compound 1 µM
# [7] = second compound 0.1 µM, first compound 0.00316 µM
# [8] = second compound 0.1 µM, first compound 0.01 µM
# [9] = second compound 0.1 µM, first compound 0.0316 µM
# [10] = second compound 0.1 µM, first compound 0.1 µM
# [11] = second compound 0.1 µM, first compound 0.316 µM
# [12] = second compound 0.1 µM, first compound 1 µM
# [13] = second compound 0.316 µM, first compound 0.00316 µM
# [14] = second compound 0.316 µM, first compound 0.01 µM
# [15] = second compound 0.316 µM, first compound 0.0316 µM
# [16] = second compound 0.316 µM, first compound 0.1 µM
# [17] = second compound 0.316 µM, first compound 0.316 µM
# [18] = second compound 0.316 µM, first compound 1 µM
# [19] = second compound 1 µM, first compound 0.00316 µM
# [20] = second compound 1 µM, first compound 0.01 µM
# [21] = second compound 1 µM, first compound 0.0316 µM
# [22] = second compound 1 µM, first compound 0.1 µM
# [23] = second compound 1 µM, first compound 0.316 µM
# [24] = second compound 1 µM, first compound 1 µM
# [25] = second compound 0.0316 µM, first compound 0.000949 µM
# [26] = second compound 0.0316 µM, first compound 0.003 µM
# [27] = second compound 0.0316 µM, first compound 0.00949 µM
# [28] = second compound 0.0316 µM, first compound 0.03 µM
# [29] = second compound 0.0316 µM, first compound 0.0949 µM
# [30] = second compound 0.0316 µM, first compound 0.3 µM
# [31] = second compound 0.1 µM, first compound 0.000949 µM
# [32] = second compound 0.1 µM, first compound 0.003 µM
# [33] = second compound 0.1 µM, first compound 0.00949 µM
# [34] = second compound 0.1 µM, first compound 0.03 µM
# [35] = second compound 0.1 µM, first compound 0.0949 µM
# [36] = second compound 0.1 µM, first compound 0.3 µM
# [37] = second compound 0.316 µM, first compound 0.000949 µM
# [38] = second compound 0.316 µM, first compound 0.003 µM
# [39] = second compound 0.316 µM, first compound 0.00949 µM
# [40] = second compound 0.316 µM, first compound 0.03 µM
# [41] = second compound 0.316 µM, first compound 0.0949 µM
# [42] = second compound 0.316 µM, first compound 0.3 µM
# [43] = second compound 1 µM, first compound 0.000949 µM
# [44] = second compound 1 µM, first compound 0.003 µM
# [45] = second compound 1 µM, first compound 0.00949 µM
# [46] = second compound 1 µM, first compound 0.03 µM
# [47] = second compound 1 µM, first compound 0.0949 µM
# [48] = second compound 1 µM, first compound 0.3 µM
# [49] = second compound 3.16 µM, first compound 0.000949 µM
# [50] = second compound 3.16 µM, first compound 0.003 µM
# [51] = second compound 3.16 µM, first compound 0.00949 µM
# [52] = second compound 3.16 µM, first compound 0.03 µM
# [53] = second compound 3.16 µM, first compound 0.0949 µM
# [54] = second compound 3.16 µM, first compound 0.3 µM
# [55] = second compound 10 µM, first compound 0.000949 µM
# [56] = second compound 10 µM, first compound 0.003 µM
# [57] = second compound 10 µM, first compound 0.00949 µM
# [58] = second compound 10 µM, first compound 0.03 µM
# [59] = second compound 10 µM, first compound 0.0949 µM
# [60] = second compound 10 µM, first compound 0.3 µM
# 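Further: spheroids exposed to agents for seven days before readout.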
# 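Wherever viability, T/C is given: luminescence viability as percent of DMSO vehicle control wells.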
compound,measurement,setting,value
C=CC(=O)N1CCN(c2nc(OCC3CCCN3C)nc3c(F)c(-c4nc(N)cc(C)c4C(F)(F)F)c(Cl)cc23)C(C)C1 (stereo not drawn) + C#Cc1c(F)ccc2cc(O)cc(-c3ncc4c(N5CC6CCC(C5)N6)nc(OCC56CCCN5CC(F)C6)nc4c3F)c12,IC50,second compound 0.0316 µM,> 1000 nM
same,IC50,second compound 0.1 µM,> 1000 nM
same,IC50,second compound 0.316 µM,> 1000 nM
same,IC50,second compound 1 µM,> 1000 nM
same,IC50,second compound 3.16 µM,> 1000 nM
same,IC50,second compound 10 µM,> 1000 nM
same,"viability, T/C",[1],111%
same,"viability, T/C",[2],128%
same,"viability, T/C",[3],132%
same,"viability, T/C",[4],108%
same,"viability, T/C",[5],107%
same,"viability, T/C",[6],123%
same,"viability, T/C",[7],98.7%
same,"viability, T/C",[8],96.9%
same,"viability, T/C",[9],97.2%
same,"viability, T/C",[10],96.4%
same,"viability, T/C",[11],91.6%
same,"viability, T/C",[12],84.4%
same,"viability, T/C",[13],106%
same,"viability, T/C",[14],105%
same,"viability, T/C",[15],91%
same,"viability, T/C",[16],99.5%
same,"viability, T/C",[17],96.7%
same,"viability, T/C",[18],104%
same,"viability, T/C",[19],99.6%
same,"viability, T/C",[20],90.9%
same,"viability, T/C",[21],92.8%
same,"viability, T/C",[22],90.6%
same,"viability, T/C",[23],118%
same,"viability, T/C",[24],97.5%
same,"viability, T/C","second compound 3.16 µM, first compound 0.00316 µM",91.1%
same,"viability, T/C","second compound 3.16 µM, first compound 0.01 µM",109%
same,"viability, T/C","second compound 3.16 µM, first compound 0.0316 µM",107%
same,"viability, T/C","second compound 3.16 µM, first compound 0.1 µM",98.6%
same,"viability, T/C","second compound 3.16 µM, first compound 0.316 µM",108%
same,"viability, T/C","second compound 3.16 µM, first compound 1 µM",123%
same,"viability, T/C","second compound 10 µM, first compound 0.00316 µM",100%
same,"viability, T/C","second compound 10 µM, first compound 0.01 µM",112%
same,"viability, T/C","second compound 10 µM, first compound 0.0316 µM",116%
same,"viability, T/C","second compound 10 µM, first compound 0.1 µM",102%
same,"viability, T/C","second compound 10 µM, first compound 0.316 µM",85.1%
same,"viability, T/C","second compound 10 µM, first compound 1 µM",107%
CC1(C)CCC(Nc2ncc(C(F)(F)F)c(-c3c[nH]c4c(P(C)(C)=O)c(C#N)ccc34)n2)CN1 (stereo not drawn) + C#Cc1c(F)ccc2cc(O)cc(-c3ncc4c(N5CC6CCC(C5)N6)nc(OCC56CCCN5CC(F)C6)nc4c3F)c12,IC50,second compound 0.0316 µM,> 300 nM
same,IC50,second compound 0.1 µM,> 300 nM
same,IC50,second compound 0.316 µM,> 300 nM
same,IC50,second compound 1 µM,> 300 nM
same,IC50,second compound 3.16 µM,> 300 nM
same,IC50,second compound 10 µM,> 300 nM
same,"viability, T/C",[25],142%
same,"viability, T/C",[26],109%
same,"viability, T/C",[27],91.4%
same,"viability, T/C",[28],69%
same,"viability, T/C",[29],71.2%
same,"viability, T/C",[30],66.8%
same,"viability, T/C",[31],103%
same,"viability, T/C",[32],132%
same,"viability, T/C",[33],87.1%
same,"viability, T/C",[34],72.6%
same,"viability, T/C",[35],71.9%
same,"viability, T/C",[36],72.5%
same,"viability, T/C",[37],118%
same,"viability, T/C",[38],92.6%
same,"viability, T/C",[39],92.3%
same,"viability, T/C",[40],67.1%
same,"viability, T/C",[41],71.9%
same,"viability, T/C",[42],57.8%
same,"viability, T/C",[43],112%
same,"viability, T/C",[44],110%
same,"viability, T/C",[45],96.9%
same,"viability, T/C",[46],80.4%
same,"viability, T/C",[47],74.9%
same,"viability, T/C",[48],67.7%
same,"viability, T/C",[49],93%
same,"viability, T/C",[50],103%
same,"viability, T/C",[51],98.8%
same,"viability, T/C",[52],75.4%
same,"viability, T/C",[53],83.6%
same,"viability, T/C",[54],72.9%
same,"viability, T/C",[55],113%
same,"viability, T/C",[56],87.3%
same,"viability, T/C",[57],98%
same,"viability, T/C",[58],88.4%
same,"viability, T/C",[59],98.6%
same,"viability, T/C",[60],76.7%
CCc1c2c(nc3ccc(O)cc13)-c1cc3c(c(=O)n1C2)COC(=O)[C@]3(O)CC + C#Cc1c(F)ccc2cc(O)cc(-c3ncc4c(N5CC6CCC(C5)N6)nc(OCC56CCCN5CC(F)C6)nc4c3F)c12,IC50,second compound 0.0316 µM,> 300 nM
same,IC50,second compound 0.1 µM,> 300 nM
same,IC50,second compound 0.316 µM,> 300 nM
same,IC50,second compound 1 µM,> 300 nM
same,IC50,second compound 3.16 µM,> 300 nM
same,IC50,second compound 10 µM,> 300 nM
same,"viability, T/C",[25],97%
same,"viability, T/C",[26],131%
same,"viability, T/C",[27],120%
same,"viability, T/C",[28],96.8%
same,"viability, T/C",[29],88.2%
same,"viability, T/C",[30],53%
same,"viability, T/C",[31],113%
same,"viability, T/C",[32],122%
same,"viability, T/C",[33],130%
same,"viability, T/C",[34],95.8%
same,"viability, T/C",[35],84.5%
same,"viability, T/C",[36],61.4%
same,"viability, T/C",[37],117%
same,"viability, T/C",[38],128%
same,"viability, T/C",[39],109%
same,"viability, T/C",[40],101%
same,"viability, T/C",[41],85.6%
same,"viability, T/C",[42],55.6%
same,"viability, T/C",[43],108%
same,"viability, T/C",[44],104%
same,"viability, T/C",[45],113%
same,"viability, T/C",[46],95.3%
same,"viability, T/C",[47],80.1%
same,"viability, T/C",[48],61%
same,"viability, T/C",[49],115%
same,"viability, T/C",[50],127%
same,"viability, T/C",[51],125%
same,"viability, T/C",[52],100%
same,"viability, T/C",[53],97.5%
same,"viability, T/C",[54],66.3%
same,"viability, T/C",[55],97.1%
same,"viability, T/C",[56],112%
same,"viability, T/C",[57],116%
same,"viability, T/C",[58],102%
same,"viability, T/C",[59],87.9%
same,"viability, T/C",[60],63.5%
C=CC(=O)Nc1cc(Nc2nccc(-c3cn(C)c4ccccc34)n2)c(OC)cc1N(C)CCN(C)C + C=CC(=O)N1CCN(c2nc(OCC3CCCN3C)nc3c(F)c(-c4nc(N)cc(C)c4C(F)(F)F)c(Cl)cc23)C(C)C1,IC50,second compound 0.00316 µM,> 1000 nM
same,IC50,second compound 0.01 µM,> 1000 nM
same,IC50,second compound 0.0316 µM,> 1000 nM
same,IC50,second compound 0.1 µM,> 1000 nM
same,IC50,second compound 0.316 µM,> 1000 nM
same,IC50,second compound 1 µM,> 1000 nM
same,"viability, T/C","second compound 0.00316 µM, first compound 0.00316 µM",126%
same,"viability, T/C","second compound 0.00316 µM, first compound 0.01 µM",113%
same,"viability, T/C","second compound 0.00316 µM, first compound 0.0316 µM",124%
same,"viability, T/C","second compound 0.00316 µM, first compound 0.1 µM",102%
same,"viability, T/C","second compound 0.00316 µM, first compound 0.316 µM",112%
same,"viability, T/C","second compound 0.00316 µM, first compound 1 µM",114%
same,"viability, T/C","second compound 0.01 µM, first compound 0.00316 µM",123%
same,"viability, T/C","second compound 0.01 µM, first compound 0.01 µM",111%
same,"viability, T/C","second compound 0.01 µM, first compound 0.0316 µM",100%
same,"viability, T/C","second compound 0.01 µM, first compound 0.1 µM",106%
same,"viability, T/C","second compound 0.01 µM, first compound 0.316 µM",109%
same,"viability, T/C","second compound 0.01 µM, first compound 1 µM",100%
same,"viability, T/C",[1],112%
same,"viability, T/C",[2],112%
same,"viability, T/C",[3],100%
same,"viability, T/C",[4],124%
same,"viability, T/C",[5],114%
same,"viability, T/C",[6],96.3%
same,"viability, T/C",[7],118%
same,"viability, T/C",[8],107%
same,"viability, T/C",[9],136%
same,"viability, T/C",[10],113%
same,"viability, T/C",[11],94.7%
same,"viability, T/C",[12],120%
same,"viability, T/C",[13],122%
same,"viability, T/C",[14],107%
same,"viability, T/C",[15],110%
same,"viability, T/C",[16],105%
same,"viability, T/C",[17],121%
same,"viability, T/C",[18],122%
same,"viability, T/C",[19],139%
same,"viability, T/C",[20],116%
same,"viability, T/C",[21],114%
same,"viability, T/C",[22],118%
same,"viability, T/C",[23],121%
same,"viability, T/C",[24],137%
